Assay results from US4147787A, “4,5,6,7-Tetrahydro-thieno[2,3-c]-and [3,2-c]-pyridines, and therapeutic compositions containing the same” (Parcor, priority 1977, dated 1979).

Tests used:
[1] = Acute toxicity (LD50, method according to Miller and Tainter); conditions: mouse, in vivo, mice, intravenous, read-out: LD50 /24h/kg body weight
[2] = tested on: Collagen-induced blood-platelet aggregation; experiment: Collagen-induced blood-platelet aggregation; assay type: in vivo, Wistar rats; conditions: Rattus norvegicus, po; 100 mg/kg orally, rats, 3 hours after treatment; read-out: Percent inhibition of blood-platelet aggregation, Collagen
Experimental: (§1) A blood sample is taken from the jugular vein of Wistar rats. From this citrated blood and after centifugation, a plasma is reconstituted which contains 600,000 ± 20,000 blood-platelets per ml, which plasma is then used in all aggregation determinations.
(§2) 0.4 ml plasma is placed in a siliconized tube provided with a magnet bar, also siliconized. The tube is introduced into an aggregometer connected to an apparatus which records optical density variations. When light transmission has attained a stable value, 0.5 ml of a solution containing 10 μM A.D.P. (adenosinediphosphate) is added to the tube.
(§3) Blood-platelet aggregation induces an increase of light transmission, followed by a decrease subsequent to the deaggregation phase.
The A.D.P. solution is substituted with a collagen (bovine tendon extract) solution.
(§4) Different groups of 20 rats each are used, each group being orally administered 100 mg/kg of a test derivative.

[3] = tested on: rat globules (red corpuscles); experiment: In vitro anti-sludge activity, curative procedure (protamine sulfate); assay type: cell-based; conditions: 25 μg
Experimental: Said activity was investigated in vitro and in vivo in rats.
Thrice washed rat globules are diluted to 1/250 in physiological saline. In each of 5 tubes are placed 0.6 ml of this suspension and 0.2 ml physiological saline. To each tube is then added 0-25-50-100 and 200 μg, respectively, of the test derivative contained in 0.2 ml solution. After incubation for one hour at 37° C., 0.2 ml of a solution containing 125 μg/ml protamine sulfate are added, after which the tube is then incubated again for 0.5 hour at 37° C. The globules of each tube are then examined with a Mallases cell, and the percent free globules and the percent aggregates formed by 2, 3, 4, 5 etc.. globules is then recorded.
The experiment was repeated according to a "curvative" procedure; the red corpuscles were first contacted with protamine sulfate and, after incubation for 0.5 hour, 0.2 ml containing 25 μg of test derivative were added thereto, which operation is followed by another incubation for one hour at 37° C. The results obtained are reported in Table III, in which the percent agglomerates as a function of size is indicated.

[4] = tested on: A.D.P. induced blood-platelet aggregation; experiment: A.D.P. induced blood-platelet aggregation; assay type: in vivo, Wistar rats; conditions: Rattus norvegicus, po; 100 mg/kg orally, rats, 3 hours after treatment, 10 μM A.D.P. solution; read-out: Percent inhibition of blood-platelet aggregation, A.D.P.
Experimental: as §1, §2, §3, §4

Compound | LD50 at 24 h [1] [mg/kg] | inhibition at 100 mg/kg [2] [%] | percent agglomerates, size 2 [3] [%] | percent agglomerates, size 3 [3] [%] | percent agglomerates, size 4 [3] [%] | percent agglomerates, size 5 [3] [%] | percent agglomerates, size 6 [3] [%] | percent agglomerates, size 7 [3] [%] | percent agglomerates, size 8 [3] [%] | percent agglomerates, size 9 [3] [%] | percent agglomerates, size 10 [3] [%] | percent free red corpuscles (size of agglomerates 1) [3] [%] | inhibition at 100 mg/kg [4] [%]
O=C(O)C1Cc2sccc2CN1 (stereo not shown) [Example 2, 6-Carboxy-4,5,6,7-tetrahydro-thieno[3,2-c]pyridine] | 235 |  |  |  |  |  |  |  |  |  |  |  | 
O=C(O)[C@@H]1NCc2sccc2[C@@H]1O (relative stereo) [Example 5, 5-Carboxy-4-hydroxy-4,5,6,7-tetrahydro-thieno[2,3-c]pyridine] |  | 90.5 | 11 | 3 | 0 | 0 | 0 | 0 | 0 | 0 | 0 | 86 | 62.3
CN1Cc2ccsc2CC1C(=O)O (stereo not shown) [Example 25, 5-Methyl-6-carboxy-4,5,6,7-tetrahydro-thieno[3,2-c]pyridine] | 325 | 92.4 |  |  |  |  |  |  |  |  |  |  | 61.6
